Source: ChEMBL document CHEMBL2375236, “Strategic use of conformational bias and structure based design to identify potent JAK3 inhibitors with improved selectivity against the JAK family and the kinome” (Bioorg Med Chem Lett, 2013)
pIC50, pKd: −log10 of the molar value. Converted amounts (≈) assume the structure as drawn.

What was measured:
[1] = biological target: T1, Tyrosine-protein kinase JAK3 (Homo sapiens, UniProt P52333)
T1 sequence (P52333 whole entry): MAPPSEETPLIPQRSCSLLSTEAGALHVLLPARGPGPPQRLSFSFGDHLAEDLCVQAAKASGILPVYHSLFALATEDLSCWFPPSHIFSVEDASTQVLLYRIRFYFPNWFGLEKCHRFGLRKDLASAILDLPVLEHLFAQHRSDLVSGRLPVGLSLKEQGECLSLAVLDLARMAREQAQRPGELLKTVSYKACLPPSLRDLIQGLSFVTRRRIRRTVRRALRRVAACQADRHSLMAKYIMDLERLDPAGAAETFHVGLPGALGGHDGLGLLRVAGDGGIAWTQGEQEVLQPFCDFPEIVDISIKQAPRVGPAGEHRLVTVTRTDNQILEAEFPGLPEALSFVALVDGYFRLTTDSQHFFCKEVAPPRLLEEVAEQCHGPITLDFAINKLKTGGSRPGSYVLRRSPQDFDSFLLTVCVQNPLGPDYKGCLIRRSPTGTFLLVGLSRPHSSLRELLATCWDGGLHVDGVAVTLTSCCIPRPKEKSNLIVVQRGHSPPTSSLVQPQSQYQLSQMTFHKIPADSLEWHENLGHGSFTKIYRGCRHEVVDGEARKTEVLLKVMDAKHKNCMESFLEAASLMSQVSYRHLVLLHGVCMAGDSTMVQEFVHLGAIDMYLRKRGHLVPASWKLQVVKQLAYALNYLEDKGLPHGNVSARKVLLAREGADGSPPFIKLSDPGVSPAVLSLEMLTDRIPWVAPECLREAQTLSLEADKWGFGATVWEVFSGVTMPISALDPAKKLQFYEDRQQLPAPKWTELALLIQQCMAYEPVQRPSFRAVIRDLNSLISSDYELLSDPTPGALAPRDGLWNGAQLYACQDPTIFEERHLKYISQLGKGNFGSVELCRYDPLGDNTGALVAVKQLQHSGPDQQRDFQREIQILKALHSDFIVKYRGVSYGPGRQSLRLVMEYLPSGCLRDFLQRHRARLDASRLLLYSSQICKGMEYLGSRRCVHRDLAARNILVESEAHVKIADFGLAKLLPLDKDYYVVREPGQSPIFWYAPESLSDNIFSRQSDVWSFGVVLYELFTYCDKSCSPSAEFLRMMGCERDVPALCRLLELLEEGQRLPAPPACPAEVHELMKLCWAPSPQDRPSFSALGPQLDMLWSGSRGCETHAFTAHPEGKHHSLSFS

[2] = biological target: T2, Tyrosine-protein kinase JAK1 (Homo sapiens, UniProt P23458)
[3] = biological target: Non-receptor tyrosine-protein kinase TYK2 (Homo sapiens, UniProt P29597)
Description: Binding affinity to TYK2 (unknown origin) by ligand displacement assay

[4] = biological target: T2, Tyrosine-protein kinase JAK1; remark: listed apart in the source
Description: Binding affinity to JAK1 (unknown origin) by ligand displacement assay

Structure (SMILES) | solubility (physchem) | pIC50 [2] | further results
CCn1cc(-c2cnc3[nH]cc(C(=O)N[C@H](C)C(=O)N4CC(C#N)C4)c3n2)cn1 | 366 µg/mL (≈ 933 µM) | 7.64 | pIC50 [1]: 8.28
C[C@@H](NC(=O)c1c[nH]c2ncc(-c3nn(C)c4ccccc34)nc12)C(=O)N1CC(C#N)C1 | – | 7.66 | –
C[C@@H](NC(=O)c1c[nH]c2ncc(-c3nn(C)c4cc(C5CC5)ccc34)nc12)C(=O)N1CC(C#N)C1 | – | 8.00 | –
C[C@@H](NC(=O)c1c[nH]c2ncc(-c3ncn4cc(F)ccc34)nc12)C(=O)N1CC(C#N)C1 | 39 µg/mL (≈ 90.2 µM) | 7.80 | –
Cn1nc(-c2cnc3[nH]cc(C(=O)N[C@@H](C(=O)N4CC(C#N)C4)C4CC4)c3n2)c2ccc(Cl)cc21 | – | 9.10 | –
C[C@@H](NC(=O)c1c[nH]c2ncc(-c3nn(C)c4cc(C(C)(C)C)ccc34)nc12)C(=O)N1CC(C#N)C1 | – | 7.92 | –
C[C@@H](NC(=O)c1c[nH]c2ncc(-c3cnc4cc(Cl)ccn34)nc12)C(=O)N1CC(C#N)C1 | – | 7.21 | –
CC[C@@H](NC(=O)c1c[nH]c2ncc(-c3nn(C)c4cc(Cl)ccc34)nc12)C(=O)N1CC(C#N)C1 | < 1 µg/mL | 8.34 | –
C[C@@H](NC(=O)c1c[nH]c2ncc(-n3ncc4cc(Cl)ccc43)nc12)C(=O)N1CC(C#N)C1 | < 1 µg/mL | 6.43 | –
C[C@@H](NC(=O)c1c[nH]c2ncc(-c3nn(C)c4cc(F)ccc34)nc12)C(=O)N1CC(C#N)C1 | < 1 µg/mL | 7.77 | –
C[C@@H](NC(=O)c1c[nH]c2ncc(C3CC3)nc12)C(=O)N1CC(C#N)C1 | 277 µg/mL (≈ 819 µM) | – | –

Second part, led by results:

solubility (physchem) | pIC50 [2] | Structure (SMILES) | further results
– | 7.21 | C[C@@H](NC(=O)c1c[nH]c2ncc(-c3nn(C)c4ccc(Cl)cc34)nc12)C(=O)N1CC(C#N)C1 | –
– | 8.26 | Cn1nc(-c2cnc3[nH]cc(C(=O)N[C@@H](C(=O)N4CC(C#N)C4)C(C)(C)C)c3n2)c2ccc(Cl)cc21 | –
< 1 µg/mL | 7.29 | C[C@@H](NC(=O)c1c[nH]c2ncc(-c3nn(C)c4cc(C#N)ccc34)nc12)C(=O)N1CC(C#N)C1 | –
31 µg/mL (≈ 68.8 µM) | 7.14 | C[C@@H](NC(=O)c1c[nH]c2ncc(-c3ncn4cc(F)cc(F)c34)nc12)C(=O)N1CC(C#N)C1 | –
– | 8.13 | COc1cc(-c2cnc3[nH]cc(C(=O)N[C@H](C)C(=O)N4CC(C#N)C4)c3n2)cc(OC)c1OC | –
< 1 µg/mL | 7.51 | C[C@@H](NC(=O)c1c[nH]c2ncc(-c3nn(C)c4cc(Cl)ccc34)nc12)C(=O)N1CC(C#N)C1 | pKd [3]: 6.46; pKd [4]: 7.14
< 1 µg/mL | 9.00 | C[C@@H](NC(=O)c1c[nH]c2ncc(-c3cn(C)c4cc(Cl)ccc34)nc12)C(=O)N1CC(C#N)C1 | –
< 1 µg/mL | 7.42 | COc1ccc2c(-c3cnc4[nH]cc(C(=O)N[C@H](C)C(=O)N5CC(C#N)C5)c4n3)nn(C)c2c1 | –
< 1 µg/mL | – | C[C@@H](NC(=O)c1c[nH]c2ncc(-c3nn(C)c4cc(Cl)cc(F)c34)nc12)C(=O)N1CC(C#N)C1 | –
